# Test results as given in patent US8063018B2, “Bivalent thrombin binding molecules comprising linkers” (National Research Council of Canada, priority 2004, dated 2011).
# What was measured:
# [1] = target: T1, thrombin (Homo sapiens, UniProt P00734); assay: Kinetic amidolytic assay with chromogenic substrate S-2238 (inhibition constants); assay type: biochemical; conditions: 25° C., S-2238, clotting buffer; read-out: KI, nM (25° C.)
# Experimental: (§1) Peptides were freeze-dried and their identity was confirmed by ion-spray mass spectrometry. Clotting assays were carried out by use of the protocols described previously (DiMaio and others, 1990, 21698-21703; Witting and others, 1992, 737-743). The assay employs bovine plasma fibrinogen dissolved at 0.1% in 50 mM Tris-Cl, 100 mM NaCl, 0.1% PEG-8000 at pH 7.6 (i.e. the clotting buffer). Each assay mixture contained a certain concentration of the peptide, and the reaction was started by the addition of human thrombin to a final concentration of 0.6-1.2 nM. Optical absorbance increase at 420 nm caused by fibrin clot formation was measured at 25° C. or 37° C. using the Spectramax plate reader. The onset clotting time was determined as an intersection of the baseline and the extrapolated linear portion of the OD change curve. The concentration of a peptide needed to double the clotting time was defined as IC50 (DiMaio and others, 1990, 21698-21703). Kinetic amidolytic curves were obtained in clotting buffer at 25° C. using eight inhibitor concentrations and three to five concentrations of the chromogenic substrate S-2238 (Chromogenix) (DiMaio and others, 1990, 21698-21703). Inhibition constants were extracted from Lineweaver-Burk equation by using weighted linear regression. Errors in Ki determination were estimated by using Monte-Carlo sampling with 1-3% variance of the experimental points. Peptide concentrations were determined spectrophotometrically using predicted extinction coefficients at 278 nm (Gill and von Hippel, 1989, 319-326).
# [2] = target: T1, thrombin; assay: Fibrinogen clotting assay catalyzed by thrombin; assay type: biochemical; conditions: concentration needed to double the clotting time
# Experimental: Curves represent OD420 time course after the addition of 0.6 nM thrombin in the presence of (♦) 0 nM; (◯) 0.5 nM; (□) 1 nM; (Δ) 1.5 nM; (⋄) 2.5 nM; (●) 3.75 nM; (▪) 6.25 nM; and (▴) […] of the inhibitor with linker (GS)n and n=2 (SEQ. ID. NO. 50) (a); n=4 (SEQ. ID. NO. 51) (b); n=6 (SEQ. ID. NO. 52) (c); n=8 (SEQ. ID. NO. 53) (d); n=10 (SEQ. ID. NO. 54) (e); and in the presence of (♦) 0 nM; (◯) 1 nM; (□) 2 nM; (Δ) 4 nM; (⋄) 6 nM; (●) 10 nM; (▪) 15 nM; and (▴) 25 nM of the inhibitor with linker (GS)n and n=12 (SEQ. ID. NO. 55) (f); n=14 (SEQ. ID. NO. 56) (g), at 37° C. The onset clotting time was determined as an intersection of the baseline and the extrapolated linear portion of the OD change curve. […] Curves (i) represent OD420 time course in the presence of (A) 0 nM; (◯) 1 nM; (□) 2 nM; (Δ) 4 nM; (⋄) 6 nM; and (●) 15 nM of the inhibitor with linker […] (SEQ. ID. NO. 103), at 37° C. […] represent OD420 time course in the presence of (◯) 0 nM; (□) 2 nM; (Δ) 4 nM; (⋄) 6 nM; (●) 8 nM; (▪) 10 nM; (▴) 12 nM; and (♦) 15 nM; of the inhibitor with linker […] (SEQ. ID. NO. 58) at 25° C. Curves (k) represent OD420 time course in the presence of (◯) 0 nM; (□) 0.5 nM; (Δ) 1 nM; (⋄) 2 nM; (●) 3 nM; (▪) 4 nM; (▴) 5 nM; and (♦) 6 nM; of the inhibitor with linker […] (SEQ. ID. NO. 105) at 37° C. Curves (I) represent OD420 time course in the presence of (◯) 0 nM; (□) 0.25 nM; (Δ) 0.5 nM; (⋄) 1 nM; (●) 1.5 nM; (▪) 2 nM; and (▴) 2.5 nM; of the inhibitor with linker […] (SEQ. ID. NO. 104) at 37° C. Curves (m) represent OD420 time course in the presence of (◯) 0 nM; (□) 2 nM; (Δ) 4 nM; (⋄) 6 nM; (●) 8 nM; (▴) 10 nM; and (A) 12 nM; of the inhibitor with linker […] (SEQ. ID. NO. 106) at 37° C. Curves (n) represent OD420 time course in the presence of (◯) 0 nM; (□) 1 nM; (Δ) 2 nM; (⋄) 3 nM; (●) 4 nM; (▪) 5 nM; (▴) 6 nM; and (♦) 7 nM; of the inhibitor with linker […] (SEQ. ID. NO. 107) at 37° C. Curves (o) represent OD420 time course in the presence of (◯) 0 nM; (□) 4 nM; and (Δ) 8 nM; of the inhibitor with linker GQSHNR (SEQ. ID. NO. 108) at 37° C.
# Other experimental conditions were as used for the assays described in FIG. 2.
# as §1, with “Clotting” for “Peptides were freeze-dried and their identity was confirmed by ion-spray mass spectrometry. Clotting”, “points.” for “points. Peptide concentrations were determined spectrophotometrically using predicted extinction coefficients at 278 nm (Gill and von Hippel, 1989, 319-326).”
SMILES,Ki [1] [nM],"IC50 ([2]; IC50, nM (37° C.), 37° C.) [nM]","IC50 ([2]; IC50, nM (25° C.), 25° C.) [nM]"
CC[C@H](C)[C@H](NC(=O)[C@H](CCC(=O)O)NC(=O)[C@H](CCC(=O)O)NC(=O)[C@H](Cc1ccccc1)NC(=O)[C@H](CC(=O)O)NC(=O)CNC(=O)[C@H](CO)NC(=O)CNC(=O)[C@H](CO)NC(=O)CNC(=O)[C@H](CO)NC(=O)CNC(=O)[C@H](CO)NC(=O)CNC(=O)[C@H](CO)NC(=O)CNC(=O)[C@H](CO)NC(=O)CNC(=O)[C@H]1CCCCN1C(=O)[C@H](CCCNC(=N)N)NS(=O)(=O)c1ccc(C(C)(C)C)cc1)C(=O)N1CCC[C@H]1C(=O)N[C@@H](CCC(=O)O)C(=O)N[C@@H](CCC(=O)O)C(=O)N[C@@H](Cc1ccc(O)cc1)C(=O)N[C@@H](CC(C)C)C(=O)N[C@@H](CCC(N)=O)C(=O)O [P3151],0.6 ± 0.1,0.5 ± 0.1,
CC[C@H](C)[C@H](NC(=O)[C@H](CCC(=O)O)NC(=O)[C@H](CCC(=O)O)NC(=O)[C@H](Cc1ccccc1)NC(=O)[C@H](CC(=O)O)NC(=O)CNC(=O)[C@H](CO)NC(=O)CNC(=O)[C@H](CO)NC(=O)CNC(=O)[C@H](CO)NC(=O)CNC(=O)[C@H](CO)NC(=O)CNC(=O)[C@H](CO)NC(=O)CNC(=O)[C@H](CO)NC(=O)CNC(=O)[C@H](CO)NC(=O)CNC(=O)[C@H](CO)NC(=O)CNC(=O)[C@H](CO)NC(=O)CNC(=O)[C@H](CO)NC(=O)CNC(=O)[C@H]1CCCCN1C(=O)[C@H](CCCNC(=N)N)NS(=O)(=O)c1ccc(C(C)(C)C)cc1)C(=O)N1CCC[C@H]1C(=O)N[C@@H](CCC(=O)O)C(=O)N[C@@H](CCC(=O)O)C(=O)N[C@@H](Cc1ccc(O)cc1)C(=O)N[C@@H](CC(C)C)C(=O)N[C@@H](CCC(N)=O)C(=O)O [P3153],2 ± 0.3,1 ± 0.1,
CC[C@H](C)[C@H](NC(=O)[C@H](CCC(=O)O)NC(=O)[C@H](CCC(=O)O)NC(=O)[C@H](Cc1ccccc1)NC(=O)[C@H](CC(=O)O)NC(=O)CNC(=O)[C@H](CO)NC(=O)CNC(=O)[C@H](CO)NC(=O)CNC(=O)[C@H](CO)NC(=O)CNC(=O)[C@H](CO)NC(=O)CNC(=O)[C@H](CO)NC(=O)CNC(=O)[C@H](CO)NC(=O)CNC(=O)[C@H](CO)NC(=O)CNC(=O)[C@H](CO)NC(=O)CNC(=O)[C@H](CO)NC(=O)CNC(=O)[C@H](CO)NC(=O)CNC(=O)[C@H](CO)NC(=O)CNC(=O)[C@H](CO)NC(=O)CNC(=O)[C@H](CO)NC(=O)CNC(=O)[C@H](CO)NC(=O)CNC(=O)[C@H]1CCCCN1C(=O)[C@H](CCCNC(=N)N)NS(=O)(=O)c1ccc(C(C)(C)C)cc1)C(=O)N1CCC[C@H]1C(=O)N[C@@H](CCC(=O)O)C(=O)N[C@@H](CCC(=O)O)C(=O)N[C@@H](Cc1ccc(O)cc1)C(=O)N[C@@H](CC(C)C)C(=O)N[C@@H](CCC(N)=O)C(=O)O [P3159],6.7 ± 1.9,3.5 ± 0.2,
CC[C@H](C)[C@H](NC(=O)[C@H](CCC(=O)O)NC(=O)[C@H](CCC(=O)O)NC(=O)[C@H](Cc1ccccc1)NC(=O)[C@H](CC(=O)O)NC(=O)CNC(=O)[C@H](CO)NC(=O)CNC(=O)[C@H](CO)NC(=O)CNC(=O)[C@H](CO)NC(=O)CNC(=O)[C@H](CO)NC(=O)CNC(=O)[C@H](CO)NC(=O)CNC(=O)[C@H](CO)NC(=O)CNC(=O)[C@H](CO)NC(=O)CNC(=O)[C@H](CO)NC(=O)CNC(=O)[C@H](CO)NC(=O)CNC(=O)[C@H](CO)NC(=O)CNC(=O)[C@H](CO)NC(=O)CNC(=O)[C@H](CO)NC(=O)CNC(=O)[C@H]1CCCCN1C(=O)[C@H](CCCNC(=N)N)NS(=O)(=O)c1ccc(C(C)(C)C)cc1)C(=O)N1CCC[C@H]1C(=O)N[C@@H](CCC(=O)O)C(=O)N[C@@H](CCC(=O)O)C(=O)N[C@@H](Cc1ccc(O)cc1)C(=O)N[C@@H](CC(C)C)C(=O)N[C@@H](CCC(N)=O)C(=O)O [P3160],4.6 ± 0.8,2.8 ± 0.1,
CC[C@H](C)[C@H](NC(=O)[C@H](CCC(=O)O)NC(=O)[C@H](CCC(=O)O)NC(=O)[C@H](Cc1ccccc1)NC(=O)[C@H](CC(=O)O)NC(=O)CNC(=O)[C@H](CO)NC(=O)[C@@H](NC(=O)[C@H](CCCCN)NC(=O)[C@H](CCC(=O)O)NC(=O)[C@H](Cc1ccc(O)cc1)NC(=O)[C@H](Cc1c[nH]cn1)NC(=O)[C@@H]1CCCN1C(=O)[C@H](CO)NC(=O)CNC(=O)[C@H]1CCCCN1C(=O)[C@H](CCCNC(=N)N)NS(=O)(=O)c1ccc(C(C)(C)C)cc1)C(C)C)C(=O)N1CCC[C@H]1C(=O)N[C@@H](CCC(=O)O)C(=O)N[C@@H](CCC(=O)O)C(=O)N[C@@H](Cc1ccc(O)cc1)C(=O)N[C@@H](CC(C)C)C(=O)N[C@@H](CCC(N)=O)C(=O)O [P3169],1 ± 0.2,,0.4
CC[C@H](C)[C@H](NC(=O)[C@H](CCC(=O)O)NC(=O)[C@H](CCC(=O)O)NC(=O)[C@H](Cc1ccccc1)NC(=O)[C@H](CC(=O)O)NC(=O)CNC(=O)[C@H](CO)NC(=O)[C@@H](NC(=O)[C@H](CCCCN)NC(=O)[C@H](CCC(=O)O)NC(=O)[C@H](Cc1ccc(OP(=O)(O)O)cc1)NC(=O)[C@H](Cc1c[nH]cn1)NC(=O)[C@@H]1CCCN1C(=O)[C@H](CO)NC(=O)CNC(=O)[C@H]1CCCCN1C(=O)[C@H](CCCNC(=N)N)NS(=O)(=O)c1ccc(C(C)(C)C)cc1)C(C)C)C(=O)N1CCC[C@H]1C(=O)N[C@@H](CCC(=O)O)C(=O)N[C@@H](CCC(=O)O)C(=O)N[C@@H](Cc1ccc(O)cc1)C(=O)N[C@@H](CC(C)C)C(=O)N[C@@H](CCC(N)=O)C(=O)O [P3170],1.5 ± 0.4,,0.7
